From patent US20120270237A9, “METHODS FOR THE IDENTIFICATION OF KINASE INTERACTING MOLECULES AND FOR THE PURIFICATION OF KINASE PROTEINS” (Cellzone AG, priority 2009, published 2012)

How the values were obtained:
Test in all cases: Kinobeads competition binding, HL60 cell lysate
Parameters in all cases: endogenous in cells; host or cells: HL60
Details in all cases: 10 μM free compound
PKD2 = target: T1, PKD2 (Homo sapiens, UniProt Q9BZL6)
T1 sequence (Q9BZL6 1-878): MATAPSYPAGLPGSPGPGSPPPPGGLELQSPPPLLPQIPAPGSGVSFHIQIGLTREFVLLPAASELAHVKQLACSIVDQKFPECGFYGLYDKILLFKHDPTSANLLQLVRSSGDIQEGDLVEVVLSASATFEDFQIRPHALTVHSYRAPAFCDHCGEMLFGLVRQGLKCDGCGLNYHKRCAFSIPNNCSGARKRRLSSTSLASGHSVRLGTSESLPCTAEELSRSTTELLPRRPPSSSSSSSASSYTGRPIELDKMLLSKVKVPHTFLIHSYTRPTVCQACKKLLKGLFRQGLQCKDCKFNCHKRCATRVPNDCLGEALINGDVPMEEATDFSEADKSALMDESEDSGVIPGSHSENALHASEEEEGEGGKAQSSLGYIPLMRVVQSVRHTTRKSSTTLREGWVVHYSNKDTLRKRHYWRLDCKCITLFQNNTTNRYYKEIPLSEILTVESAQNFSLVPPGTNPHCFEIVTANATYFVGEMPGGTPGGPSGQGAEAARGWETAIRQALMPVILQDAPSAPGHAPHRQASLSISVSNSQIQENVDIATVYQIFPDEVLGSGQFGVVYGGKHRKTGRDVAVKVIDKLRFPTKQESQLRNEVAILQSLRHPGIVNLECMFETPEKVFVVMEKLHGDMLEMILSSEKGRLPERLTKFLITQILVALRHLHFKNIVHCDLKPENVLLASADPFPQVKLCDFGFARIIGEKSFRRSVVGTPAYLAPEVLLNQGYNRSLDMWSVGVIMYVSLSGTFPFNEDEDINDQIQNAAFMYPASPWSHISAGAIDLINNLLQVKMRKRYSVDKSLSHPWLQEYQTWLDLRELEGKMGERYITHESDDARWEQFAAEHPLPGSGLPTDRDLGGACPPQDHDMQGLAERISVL
Procedure: (§1) To one aliquot of cell lysate 10 μM of the free compound (FIG. 3, CZC31326) was added and allowed to bind to proteins in the lysate. Then the affinity matrix with the immobilized compound (Example 1) was added to capture proteins that were not interacting with the previously added free compound. Beads were separated from the lysate and bead bound proteins were eluted in SDS sample buffer and subsequently separated by SDS-Polyacrylamide gel electrophoresis (FIG. 4). Suitable gel bands were cut out and subjected to in-gel proteolytic digestion with trypsin. The second lysate aliquot was processed identically, however no free compound was added (DMSO solvent control). Peptides originating from samples 1 and 2 were labeled with iTRAQ reagents (iTRAQ 114 and iTRAQ 117) and the combined samples were analyzed with a nano-flow liquid chromatography system coupled online to a tandem mass spectrometer (LC-MS/MS) experiment followed by iTRAQ reporter ion quantification in the MS/MS spectra (Ross et al., 2004. Mol. Cell. Proteomics 3(12):1154-1169). Further experimental protocols can be found in WO2006/134056 and a previous publication (Bantscheff et al., 2007. Nature Biotechnology 25, 1035-1044). Sepharose-beads with the immobilized compound (100 μl beads per pull-down experiment) were equilibrated in lysis buffer and incubated with a cell lysate sample containing 50 mg of protein on an end-over-end shaker (Roto Shake Genie, Scientific Industries Inc.) for 2 hours at 4° C. Beads were collected, transferred to Mobicol-columns (MoBiTech 10055) and washed with 10 ml lysis buffer containing 0.4% NP40 detergent, followed by 5 ml lysis buffer containing 0.2% detergent. To elute bound proteins, 60 μl 2×SDS sample buffer was added to the column. The column was incubated for 30 minutes at 50° C. and the eluate was transferred to a siliconized microfuge tube by centrifugation. Proteins were then alkylated with 108 mM iodoacetamid. Proteins were then separated by SDS-Polyacrylamide electrophoresis (SDS-PAGE). The peptide extracts of samples treated with 10 μM of free compound (CZC31326) and the solvent control (0.5% DMSO) were treated with different variants of the isobaric tagging reagent (iTRAQ Reagents Multiplex Kit, part number 4352135, Applied Biosystems, Foster City, Calif., USA). The iTRAQ reagents are a set of multiplexed, amine-specific, stable isotope reagents that can label peptides on amino groups in up to four different biological samples enabling simultaneous identification and quantitation of peptides. The iTRAQ reagents were used according to instructions provided by the manufacturer. The samples were resuspended in 10 μl 50 mM TEAB solution, pH 8.5 and 10 μl ethanol were added. The iTRAQ reagent was dissolved in 120 μl ethanol and 10 μl of reagent solution were added to the sample. The labeling reaction was performed at room temperature for one hour on a horizontal shaker and stopped by adding 5 μl of 100 mM TEAB and 100 mM glycine in water. The two labeled sampled were then combined, dried in a vacuum centrifuge and resuspended in 10 μl of 0.1% formic acid in water. Relative protein quantitation was performed using peak areas of iTRAQ reporter ion signals essentially as described in an earlier publication (Bantscheff et al., 2007. Nature Biotechnology 25, 1035-1044).

IRAK3 = IRAK3 (Homo sapiens, UniProt Q9Y616)
Procedure: as §1

IRAK1 = IRAK1 (Homo sapiens, UniProt P51617)
Procedure: as §1

HPK1 = HPK1 (Homo sapiens, UniProt Q92918)
Procedure: as §1

GSK3A = GSK3A (Homo sapiens, UniProt P49840)
Procedure: as §1

PKN1 = PKN1 (Homo sapiens, UniProt Q16512)
Procedure: as §1

GSK3B = GSK3B (Homo sapiens, UniProt P49841)
Procedure: as §1

Sequence of PKN1 (Q16512 whole entry): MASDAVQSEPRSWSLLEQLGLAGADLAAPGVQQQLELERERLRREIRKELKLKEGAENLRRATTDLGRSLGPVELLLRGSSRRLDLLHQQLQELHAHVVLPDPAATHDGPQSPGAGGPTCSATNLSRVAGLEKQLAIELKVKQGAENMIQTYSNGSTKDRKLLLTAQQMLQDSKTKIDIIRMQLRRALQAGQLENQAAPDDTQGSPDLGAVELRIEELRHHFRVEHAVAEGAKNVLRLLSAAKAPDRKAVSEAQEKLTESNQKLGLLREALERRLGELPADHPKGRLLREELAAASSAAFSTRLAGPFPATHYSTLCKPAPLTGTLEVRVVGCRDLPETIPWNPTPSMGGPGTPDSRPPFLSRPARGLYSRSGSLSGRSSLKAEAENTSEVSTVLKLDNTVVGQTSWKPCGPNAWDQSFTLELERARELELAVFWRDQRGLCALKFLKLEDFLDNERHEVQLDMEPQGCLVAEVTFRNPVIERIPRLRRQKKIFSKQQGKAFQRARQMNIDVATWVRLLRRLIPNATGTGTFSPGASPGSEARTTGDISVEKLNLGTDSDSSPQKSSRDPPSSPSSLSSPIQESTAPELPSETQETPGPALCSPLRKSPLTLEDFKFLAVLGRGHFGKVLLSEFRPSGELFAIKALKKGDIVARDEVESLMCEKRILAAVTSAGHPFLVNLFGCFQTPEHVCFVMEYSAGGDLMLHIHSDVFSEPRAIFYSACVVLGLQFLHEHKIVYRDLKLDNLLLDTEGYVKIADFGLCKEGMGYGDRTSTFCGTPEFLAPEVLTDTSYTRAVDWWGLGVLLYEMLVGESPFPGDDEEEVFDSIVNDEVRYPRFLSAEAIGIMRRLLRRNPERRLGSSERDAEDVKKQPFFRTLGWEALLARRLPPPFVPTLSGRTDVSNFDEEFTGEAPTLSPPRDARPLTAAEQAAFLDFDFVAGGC
Sequence of GSK3B (P49841 whole entry): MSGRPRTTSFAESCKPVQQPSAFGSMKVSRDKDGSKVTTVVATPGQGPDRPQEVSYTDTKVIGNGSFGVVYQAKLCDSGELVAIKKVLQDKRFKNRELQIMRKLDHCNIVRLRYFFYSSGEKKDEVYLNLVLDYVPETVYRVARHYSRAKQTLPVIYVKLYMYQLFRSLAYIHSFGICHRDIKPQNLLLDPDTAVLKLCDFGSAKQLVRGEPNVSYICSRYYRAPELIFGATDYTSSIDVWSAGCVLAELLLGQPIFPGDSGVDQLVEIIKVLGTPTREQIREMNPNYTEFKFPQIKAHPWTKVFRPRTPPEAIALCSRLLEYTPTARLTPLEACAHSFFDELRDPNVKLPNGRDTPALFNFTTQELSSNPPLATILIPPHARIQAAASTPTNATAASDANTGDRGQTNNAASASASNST
Sequence of GSK3A (P49840 whole entry): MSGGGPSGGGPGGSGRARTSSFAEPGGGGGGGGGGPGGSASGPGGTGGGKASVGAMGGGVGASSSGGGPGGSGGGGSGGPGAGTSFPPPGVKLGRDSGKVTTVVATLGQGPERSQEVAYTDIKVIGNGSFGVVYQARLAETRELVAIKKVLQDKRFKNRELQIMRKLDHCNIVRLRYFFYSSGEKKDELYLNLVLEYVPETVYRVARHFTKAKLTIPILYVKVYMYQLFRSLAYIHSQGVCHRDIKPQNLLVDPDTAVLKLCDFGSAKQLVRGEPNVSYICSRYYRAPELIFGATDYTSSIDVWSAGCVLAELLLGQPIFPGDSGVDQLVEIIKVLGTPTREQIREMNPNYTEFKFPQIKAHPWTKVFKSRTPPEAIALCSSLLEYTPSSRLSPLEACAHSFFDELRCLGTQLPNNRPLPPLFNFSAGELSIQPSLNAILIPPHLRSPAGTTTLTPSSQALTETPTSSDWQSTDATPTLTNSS
Sequence of IRAK1 (P51617 whole entry): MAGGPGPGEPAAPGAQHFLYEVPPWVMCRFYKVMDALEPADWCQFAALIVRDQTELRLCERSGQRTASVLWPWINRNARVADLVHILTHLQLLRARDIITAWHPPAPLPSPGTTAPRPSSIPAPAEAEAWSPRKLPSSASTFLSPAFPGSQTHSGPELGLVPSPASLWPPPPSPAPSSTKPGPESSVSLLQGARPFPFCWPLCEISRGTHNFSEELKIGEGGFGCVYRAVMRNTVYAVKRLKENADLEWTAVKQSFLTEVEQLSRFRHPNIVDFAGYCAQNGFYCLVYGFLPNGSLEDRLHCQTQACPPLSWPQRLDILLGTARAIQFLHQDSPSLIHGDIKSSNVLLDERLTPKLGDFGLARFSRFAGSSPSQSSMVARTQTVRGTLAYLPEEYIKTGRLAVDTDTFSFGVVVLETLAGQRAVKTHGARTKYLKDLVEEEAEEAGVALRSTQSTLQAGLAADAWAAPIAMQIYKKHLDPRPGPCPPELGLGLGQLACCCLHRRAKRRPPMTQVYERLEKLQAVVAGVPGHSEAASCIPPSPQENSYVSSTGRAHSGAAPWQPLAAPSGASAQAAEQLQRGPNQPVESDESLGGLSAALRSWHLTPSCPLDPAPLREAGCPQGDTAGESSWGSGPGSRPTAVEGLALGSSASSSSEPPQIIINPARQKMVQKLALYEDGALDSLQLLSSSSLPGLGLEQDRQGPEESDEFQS
Sequence of HPK1 (Q92918 whole entry): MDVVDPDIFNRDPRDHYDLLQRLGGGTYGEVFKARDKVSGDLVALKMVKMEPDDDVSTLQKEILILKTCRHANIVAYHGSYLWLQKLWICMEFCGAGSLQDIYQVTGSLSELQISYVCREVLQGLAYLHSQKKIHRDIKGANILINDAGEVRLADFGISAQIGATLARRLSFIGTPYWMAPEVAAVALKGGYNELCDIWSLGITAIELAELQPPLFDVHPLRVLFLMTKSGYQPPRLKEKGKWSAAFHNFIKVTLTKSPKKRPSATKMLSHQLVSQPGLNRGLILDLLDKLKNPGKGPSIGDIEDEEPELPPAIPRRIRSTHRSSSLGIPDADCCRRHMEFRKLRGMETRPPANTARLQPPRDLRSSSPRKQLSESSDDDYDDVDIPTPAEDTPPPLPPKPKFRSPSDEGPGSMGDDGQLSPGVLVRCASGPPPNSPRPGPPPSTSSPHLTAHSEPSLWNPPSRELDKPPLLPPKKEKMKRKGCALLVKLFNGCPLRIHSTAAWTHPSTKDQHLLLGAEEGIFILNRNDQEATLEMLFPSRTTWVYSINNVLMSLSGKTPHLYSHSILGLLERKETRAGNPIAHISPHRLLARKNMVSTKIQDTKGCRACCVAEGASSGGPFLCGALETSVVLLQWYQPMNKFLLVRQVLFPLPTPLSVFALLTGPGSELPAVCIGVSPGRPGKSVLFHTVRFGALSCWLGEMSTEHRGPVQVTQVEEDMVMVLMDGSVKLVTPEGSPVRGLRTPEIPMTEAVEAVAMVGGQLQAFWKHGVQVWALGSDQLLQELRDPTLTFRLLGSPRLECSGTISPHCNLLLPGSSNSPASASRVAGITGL
Sequence of IRAK3 (Q9Y616 whole entry): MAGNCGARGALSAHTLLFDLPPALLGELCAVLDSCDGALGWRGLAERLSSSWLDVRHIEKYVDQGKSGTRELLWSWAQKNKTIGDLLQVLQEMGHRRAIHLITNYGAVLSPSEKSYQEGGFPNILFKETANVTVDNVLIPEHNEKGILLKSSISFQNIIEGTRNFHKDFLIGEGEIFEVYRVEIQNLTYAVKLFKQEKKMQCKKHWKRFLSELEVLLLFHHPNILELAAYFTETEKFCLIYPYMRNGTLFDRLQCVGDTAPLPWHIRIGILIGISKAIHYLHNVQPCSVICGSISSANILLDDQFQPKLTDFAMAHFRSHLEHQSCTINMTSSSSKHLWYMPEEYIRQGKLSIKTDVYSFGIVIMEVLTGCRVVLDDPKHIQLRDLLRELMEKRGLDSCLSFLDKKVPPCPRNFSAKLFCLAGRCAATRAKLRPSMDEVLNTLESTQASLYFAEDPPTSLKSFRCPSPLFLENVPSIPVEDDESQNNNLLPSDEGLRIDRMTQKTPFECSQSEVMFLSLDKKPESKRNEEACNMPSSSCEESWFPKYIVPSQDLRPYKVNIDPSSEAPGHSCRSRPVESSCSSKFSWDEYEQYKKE

inhibition at 10 µM (PKD2): 97.9%
inhibition at 10 µM (IRAK3): 97.2%
inhibition at 10 µM (IRAK1): 94.9%
inhibition at 10 µM (HPK1): 97.7%
inhibition at 10 µM (GSK3A): 96.2%
inhibition at 10 µM (PKN1): 97%
inhibition at 10 µM (GSK3B): 96.1%
Compound: CS(=O)(=O)Nc1ccccc1Nc1nc(Nc2cccc(OCCN)c2)ncc1Cl [CZC31326, N-(2-(2-(3-(2-aminoethoxy)phenylamino)-5-chloropyrimidin-4-ylamino)phenyl)methanesulfonamide]
